Reference: the supplement of paper PMC10307832

Tests used:
Assay in all cases: relative viability (nuclei count vs DMSO), 5 days (fraction); higher = more cells survive
Alisertib + Phenformin = compound: COc1cc(Nc2ncc3c(n2)-c2ccc(Cl)cc2C(c2c(F)cccc2OC)=NC3)ccc1C(=O)O [Alisertib] + N=C(N)NC(=N)NCCc1ccccc1 [Phenformin] (partner 250 µM)
Outline: (§1)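 Relative viability was taken as the ratio of nuclei in treated wells to nuclei in vehicle wells. Lung cancer cell lines in 1536-well plates received compounds by pin tool one day after seeding, either one drug alone or a fixed anchor-drug dose plus five library-drug doses (not always all listed) in √10 steps. Nuclei were counted on 4× images after 5 days of treatment, and values are medians of duplicate plates.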

Alisertib + Trametinib = compound: COc1cc(Nc2ncc3c(n2)-c2ccc(Cl)cc2C(c2c(F)cccc2OC)=NC3)ccc1C(=O)O [Alisertib] + CC(=O)Nc1cccc(-n2c(=O)n(C3CC3)c(=O)c3c(Nc4ccc(I)cc4F)n(C)c(=O)c(C)c32)c1 [Trametinib] (partner 0.02 µM)
Outline: as §1

Alisertib + OSI-027 = compound: COc1cc(Nc2ncc3c(n2)-c2ccc(Cl)cc2C(c2c(F)cccc2OC)=NC3)ccc1C(=O)O [Alisertib] + COc1cccc2cc(-c3nc([C@H]4CC[C@H](C(=O)O)CC4)n4ncnc(N)c34)[nH]c12 [OSI-027] (partner 0.5 µM)
Outline: as §1

Alisertib = compound: COc1cc(Nc2ncc3c(n2)-c2ccc(Cl)cc2C(c2c(F)cccc2OC)=NC3)ccc1C(=O)O [Alisertib]
Outline: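 Viability was read as treated-well nuclei divided by vehicle-well nuclei, using the median across plates. Lung cancer cell lines in 1536-well plates were kept overnight at 37 °C, pinned with five √10-spaced library-drug doses, and after 5 days were Hoechst-stained, imaged at 4× and counted in MetaXpress. Plates passed only with control CV below 25% and at least one doubling.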

Cell Line	relative viability (Alisertib + Phenformin; first compound 0.005 µM)	relative viability (Alisertib + Phenformin; first compound 0.01581 µM)	relative viability (Alisertib + Phenformin; first compound 0.05 µM)	relative viability (Alisertib + Phenformin; first compound 0.1581 µM)	relative viability (Alisertib + Phenformin; first compound 0.5 µM)	relative viability (Alisertib + Trametinib; first compound 0.005 µM)	relative viability (Alisertib + Trametinib; first compound 0.01581 µM)	relative viability (Alisertib + Trametinib; first compound 0.05 µM)	relative viability (Alisertib + Trametinib; first compound 0.1581 µM)	relative viability (Alisertib + Trametinib; first compound 0.5 µM)	relative viability (Alisertib + OSI-027; first compound 0.005 µM)	relative viability (Alisertib + OSI-027; first compound 0.01581 µM)	relative viability (Alisertib + OSI-027; first compound 0.05 µM)	relative viability (Alisertib + OSI-027; first compound 0.1581 µM)	relative viability (Alisertib + OSI-027; first compound 0.5 µM)	relative viability (Alisertib; 0.005 µM)	relative viability (Alisertib; 0.01581 µM)	relative viability (Alisertib; 0.05 µM)	relative viability (Alisertib; 0.1581 µM)	relative viability (Alisertib; 0.5 µM)
NCI-H441	0.755	0.444	0.2	0.255	0.249	0.378	0.341	0.16	0.168	0.141	0.532	0.446	0.222	0.22	0.215	0.839	0.662	0.201	0.179	0.188
NCI-H460	0.474	0.343	0.0695	0.0235	0.0304	0.102	0.147	0.0441	0.0212	0.0263	0.618	0.578	0.218	0.0256	0.0214	0.922	0.844	0.49	0.0862	0.0474
NCI-H520	0.552	0.395	0.275	0.318	0.2	0.499	0.429	0.35	0.232	0.213	0.253	0.221	0.204	0.18	0.182	0.843	0.722	0.462	0.451	0.317
NCI-H522	0.521	0.56	0.75	0.419	0.493	0.779	0.777	0.728	0.551	0.445	0.684	0.618	0.69	0.532	0.433	0.817	1.02	0.696	0.515	0.452
NCI-H596	0.675	0.875	0.759	0.822	0.393	0.816	0.787	0.776	0.542	0.327	0.606	0.665	0.788	0.727	0.26	0.882	1	1.07	0.816	0.4
NCI-H647	0.456	0.336	0.168	0.0894	0.0773	0.358	0.493	0.228	0.159	0.113	0.662	0.487	0.227	0.116	0.102	0.733	0.654	0.318	0.152	0.0801
NCI-H650	0.404	0.377	0.258	0.202	0.168	0.829	0.684	0.44	0.229	0.208	0.396	0.459	0.239	0.203	0.159	0.724	0.856	0.394	0.258	0.209
NCI-H661	0.267	0.288	0.271	0.246	0.29	0.514	0.547	0.442	0.341	0.338	0.667	0.557	0.438	0.282	0.285	1.01	0.965	0.663	0.415	0.374
NCI-H727	0.514	0.504	0.262	0.276	0.352	0.308	0.392	0.355	0.341	0.353	0.573	0.466	0.421	0.482	0.374	0.817	0.929	0.542	0.384	0.401
NCI-H838	0.444	0.446	0.276	0.183	0.144	0.432	0.49	0.269	0.146	0.129	0.334	0.397	0.311	0.16	0.119	0.833	0.831	0.617	0.313	0.191
NCI-H1355	0.4	0.353	0.23	0.182	0.189	0.39	0.411	0.355	0.187	0.153	0.346	0.367	0.356	0.154	0.173	0.881	0.771	0.774	0.255	0.204
NCI-H1395	0.427	0.413	0.44	0.358	0.329	1.04	0.922	0.85	0.481	0.38	0.521	0.605	0.527	0.415	0.356	0.877	0.862	0.535	0.452	0.394
NCI-H1437	0.236	0.286	0.251	0.142	0.118	0.391	0.489	0.279	0.21	0.179	0.722	0.699	0.394	0.219	0.154	0.896	0.836	0.605	0.344	0.203
NCI-H1650	0.38	0.381	0.167	0.137	0.141	0.558	0.565	0.295	0.145	0.191	0.565	0.501	0.278	0.108	0.166	0.846	0.736	0.289	0.192	0.224
NCI-H1651	0.218	0.222	0.147	0.101	0.175	0.799	0.654	0.52	0.258	0.154	0.621	0.609	0.417	0.288	0.203	0.859	0.892	0.571	0.298	0.209
NCI-H1666	0.522	0.49	0.506	0.426	0.344	0.839	0.738	0.679	0.612	0.501	0.7	0.7	0.592	0.494	0.367	0.904	0.814	0.689	0.534	0.438

Cell Line	relative viability (Alisertib + Phenformin; first compound 0.005 µM)	relative viability (Alisertib + Phenformin; first compound 0.01581 µM)	relative viability (Alisertib + Phenformin; first compound 0.05 µM)	relative viability (Alisertib + Phenformin; first compound 0.1581 µM)	relative viability (Alisertib + Phenformin; first compound 0.5 µM)	relative viability (Alisertib + Trametinib; first compound 0.005 µM)	relative viability (Alisertib + Trametinib; first compound 0.01581 µM)	relative viability (Alisertib + Trametinib; first compound 0.05 µM)	relative viability (Alisertib + Trametinib; first compound 0.1581 µM)	relative viability (Alisertib + Trametinib; first compound 0.5 µM)	relative viability (Alisertib + OSI-027; first compound 0.005 µM)	relative viability (Alisertib + OSI-027; first compound 0.01581 µM)	relative viability (Alisertib + OSI-027; first compound 0.05 µM)	relative viability (Alisertib + OSI-027; first compound 0.1581 µM)	relative viability (Alisertib + OSI-027; first compound 0.5 µM)	relative viability (Alisertib; 0.005 µM)	relative viability (Alisertib; 0.01581 µM)	relative viability (Alisertib; 0.05 µM)	relative viability (Alisertib; 0.1581 µM)	relative viability (Alisertib; 0.5 µM)
NCI-H1734	0.314	0.298	0.256	0.221	0.176	0.678	0.73	0.381	0.238	0.163	0.562	0.436	0.296	0.277	0.18	0.802	0.731	0.417	0.299	0.193
NCI-H1755	0.558	0.498	0.517	0.397	0.262	0.742	0.712	0.474	0.426	0.305	0.638	0.645	0.541	0.341	0.27	0.939	0.963	0.805	0.386	0.36
NCI-H1792	0.299	0.253	0.107	0.13	0.0705	0.413	0.43	0.291	0.0949	0.072	0.665	0.622	0.399	0.257	0.178	0.81	0.68	0.538	0.232	0.109
NCI-H1793	0.312	0.233	0.291	0.191	0.148	0.373	0.285	0.192	0.207	0.188	0.257	0.149	0.213	0.193	0.149	0.745	0.473	0.411	0.264	0.233
NCI-H1915	0.309	0.274	0.241	0.229	0.173	0.303	0.303	0.241	0.201	0.138	0.507	0.473	0.374	0.278	0.238	0.816	0.773	0.572	0.383	0.25
NCI-H1944	0.182	0.206	0.193	0.166	0.112	0.414	0.408	0.272	0.251	0.173	0.375	0.454	0.393	0.196	0.175	0.923	1.08	0.789	0.39	0.273
NCI-H1975	0.405	0.375	0.265	0.176	0.137	0.303	0.33	0.195	0.241	0.169	0.582	0.715	0.431	0.192	0.143	0.85	0.828	0.565	0.317	0.207
NCI-H1993	0.455	0.495	0.5	0.511	0.449	0.493	0.513	0.442	0.404	0.455	0.55	0.46	0.435	0.547	0.512	0.906	0.92	0.621	0.468	0.516
NCI-H2009	0.486	0.462	0.312	0.228	0.203	0.272	0.28	0.287	0.136	0.138	0.497	0.587	0.334	0.233	0.152	0.926	0.97	0.513	0.303	0.254
NCI-H2023	0.428	0.388	0.28	0.157	0.0966	0.623	0.435	0.289	0.123	0.124	0.333	0.324	0.317	0.162	0.0743	0.838	0.727	0.566	0.227	0.109
NCI-H2085	0.597	0.651	0.42	0.259	0.327	0.505	0.496	0.264	0.183	0.246	0.591	0.746	0.469	0.222	0.235	0.936	0.955	0.572	0.327	0.385
NCI-H2087	0.423	0.372	0.13	0.12	0.105	0.243	0.221	0.149	0.134	0.0971	0.542	0.521	0.204	0.111	0.098	0.941	0.807	0.312	0.176	0.201
NCI-H2126	0.482	0.446	0.413	0.257	0.266	0.563	0.57	0.348	0.281	0.238	0.721	0.696	0.588	0.318	0.36	0.938	0.941	0.699	0.361	0.314
NCI-H2170	0.388	0.374	0.395	0.276	0.207	0.871	0.842	0.401	0.407	0.17	0.721	0.629	0.644	0.323	0.201	0.94	0.883	0.815	0.423	0.323
NCI-H2228	0.277	0.287	0.17	0.0908	0.0966	0.565	0.24	0.237	0.121	0.113	0.589	0.466	0.27	0.0993	0.115	0.778	0.85	0.531	0.158	0.189
